Patent publication US11779585B2 (priority 2020, dated 2023)
Several values for one entry are separate records, joined by “and”; a condition that tells them apart may be missing. Equal entries are not always repeated. Where two headings read alike, the source gives them in different places.

Tests used:
[1] = Rats, cited from earlier work
SARS-CoV-2 [2] = experiment: SARS-CoV-2 infection of VeroE6 cells, 48 hours, MOI 0.012; format: cell-based
[3] = Mice, cited from earlier work
[4] = African green monkeys, 1.6 mg/kg × 14 days, total dose 22.4; cited from earlier work
SARS-CoV-2 [5] = experiment: SARS-CoV-2 infection of Calu3 human lung cells, 72 hours, MOI 2; format: cell-based; settings: Severe acute respiratory syndrome coronavirus 2, Calu-3, read-out: Efficacy IC90
SARS-CoV2 = experiment: microbe, parasite or virus in culture; format: cell-based, SARS-CoV-2

NC(=O)c1cn([C@@H]2O[C@H](CO)[C@@H](O)[C@H]2O)c2ncnc(N)c12 [Oya1, 4-amino-7-((2R,3R,4S,5R)-3,4-dihydroxy-5-(hydroxymethyl)tetrahydrofuran-2-yl)-7H-pyrrolo[2,3-d]pyrimidine-5-carboxamide]
LD50, multi dose ([1]; × 24 days): 0.05 × 24 days mg/kg
LD50, single dose [1]: 1.2 mg/kg
LD50, total dose (multi dose) [1]: 1.2 mg/kg
IC90 (SARS-CoV-2 [2]; Severe acute respiratory syndrome coronavirus 2, Vero C1008, VeroE6, read-out: Efficacy IC90): 55 nM and 0.017 µg/mL
fold more effective against SARS-CoV-2 than Remdesivir (SARS-CoV-2 [2]; cells with highest infection rate (FIGS. 17A-17B: VeroE6, Calu3)): > 47 fold
Cytotoxicity (Vero E6 cells; 0.0047 μM, MOI 0.6, Plate 1): −3.314% and −2.167% and −3.385%
Cytotoxicity (Vero E6 cells; 0.0047 μM, MOI 0.6, Plate 2): −3.314% and −2.167% and −3.385%
Cytotoxicity (Vero E6 cells; 0.0094 μM, MOI 0.6, Plate 1): −0.2353% and −1.9307% and −0.5813%
Cytotoxicity (Vero E6 cells; 0.0094 μM, MOI 0.6, Plate 2): −0.2353% and −1.9307% and −0.5813%
Cytotoxicity (Vero E6 cells; 0.0188 μM, MOI 0.6, Plate 1): −0.5761% and 5.048% and 2.474%
Cytotoxicity (Vero E6 cells; 0.0188 μM, MOI 0.6, Plate 2): −0.5761% and 5.048% and 2.474%
Cytotoxicity (Vero E6 cells; 0.0375 μM, MOI 0.6, Plate 1): 14.23% and 14.79% and 16.69%
Cytotoxicity (Vero E6 cells; 0.0375 μM, MOI 0.6, Plate 2): 14.23% and 14.79% and 16.69%
Cytotoxicity (Vero E6 cells; 0.075 μM, MOI 0.6, Plate 1): 29.56% and 33.64% and 33.6%
Cytotoxicity (Vero E6 cells; 0.075 μM, MOI 0.6, Plate 2): 29.56% and 33.64% and 33.6%
Cytotoxicity (Vero E6 cells; 0.15 μM, MOI 0.6, Plate 1): 49.52% and 51.36% and 51.37%
Cytotoxicity (Vero E6 cells; 0.15 μM, MOI 0.6, Plate 2): 49.52% and 51.36% and 51.37%
Cytotoxicity (Vero E6 cells; 0.15 μM, title MOI 0.6 (text MOI 1.3), Plate 1): 49.52% and 51.36% and 51.37%
Cytotoxicity (Vero E6 cells; 0.3 μM, MOI 0.6, Plate 1): 66.57% and 64.56% and 64.1314%
Cytotoxicity (Vero E6 cells; 0.3 μM, MOI 0.6, Plate 2): 66.57% and 64.56% and 64.1314%
Cytotoxicity (Vero E6 cells; 0.3 μM, title MOI 0.6 (text MOI 1.3), Plate 1): 66.57%
Cytotoxicity (Vero E6 cells; 0.6 μM, MOI 0.6, Plate 1): 79.78% and 76.76% and 75.88%
Cytotoxicity (Vero E6 cells; 0.6 μM, MOI 0.6, Plate 2): 79.78% and 76.76% and 75.88%
toxicity margin or selectivity index, high (Vero E6 cells; 8 tests against SARS-CoV-2): 8.2
toxicity margin or selectivity index, low (Vero E6 cells; 8 tests against SARS-CoV-2): 3.1
average toxicity margin or selectivity index (Vero E6 cells; 8 tests against SARS-CoV-2, average): 4.8
LD50, multi dose ([3]; × 9 days): 0.5 × 9 days mg/kg
LD50, single dose [3]: 4 mg/kg
LD50, total dose (multi dose) [3]: 4.5 mg/kg
Effect [4]: lethal
IC90 (SARS-CoV-2 [5]): 180 nM and 0.056 µg/mL
fold increase in activity over chlorpromazine HCl (SARS-CoV2): 1000 fold
Inhibition (SARS-CoV2; 0.0047 μM, MOI 0.6, Plate 2): 1.733% and −3.975% and 4.262%
Inhibition (SARS-CoV2; 0.0047 μM, title MOI 0.6 (text MOI 1.3), Plate 2): −0.7543% and −8.894% and 0.3653%
Inhibition (SARS-CoV2; 0.0094 μM, MOI 0.2, Plate 1): 24.36% and 12.99%
Inhibition (SARS-CoV2; 0.0094 μM, MOI 0.4, Plate 1): 9.365% and 6.857% and 1.875%
Inhibition (SARS-CoV2; 0.0094 μM, title MOI 0.6 (text MOI 1.3), Plate 2): 5.994% and 7.809% and 12.95%
Inhibition (SARS-CoV2; 0.0188 μM, title MOI 0.6 (text MOI 1.3), Plate 1): 4.894% and 1.871% and −1.054%
fold better IC50 than GS-441524 (SARS-CoV2; 0.03 μM vs 1.4 μM): 47 fold
Inhibition (SARS-CoV2; 0.0375 μM, MOI 0.2, Plate 2): 31.89% and 46.61%
Inhibition (SARS-CoV2; 0.0375 μM, MOI 0.4, Plate 1): 12.31% and 18.82%
Inhibition (SARS-CoV2; 0.0375 μM, MOI 0.6, Plate 1): 27.4624% and 39.74% and 52.32%
Inhibition (SARS-CoV2; 0.0375 μM, MOI 0.6, Plate 2): 59.38% and 43.5% and 83.02%
Inhibition (SARS-CoV2; 0.075 μM, MOI 0.2, Plate 1): 81.55% and 79.85%
Inhibition (SARS-CoV2; 0.075 μM, MOI 0.2, Plate 2): 88.5915% and 83.72% and 67.19%
Inhibition (SARS-CoV2; 0.075 μM, MOI 0.4, Plate 1): 50.83% and 69.6% and 36.13%
Inhibition (SARS-CoV2; 0.075 μM, MOI 0.4, Plate 2): 24.91% and 28.1512%
Inhibition (SARS-CoV2; 0.075 μM, MOI 0.6, Plate 1): 98.66% and 98.3%
Inhibition (SARS-CoV2; 0.075 μM, MOI 0.6, Plate 2): 97.59%
Inhibition (SARS-CoV2; 0.075 μM, title MOI 0.6 (text MOI 1.3), Plate 1): 100.0792% and 80.42%
Inhibition (SARS-CoV2; 0.075 μM, title MOI 0.6 (text MOI 1.3), Plate 2): 99.3891% and 97.8301%
Inhibition (SARS-CoV2; 0.15 μM, MOI 0.2, Plate 1): 99.12% and 95.59%
Inhibition (SARS-CoV2; 0.15 μM, MOI 0.2, Plate 2): 99.22%
Inhibition (SARS-CoV2; 0.15 μM, MOI 0.4, Plate 1): 98.7% and 94.16%
